T1: aromatase (Homo sapiens, UniProt P11511)
T1 construct: gene CYP19A1; human placental aromatase cDNA (nucleotides 16-1539) stably expressed in MCF-7 cells (clone Arom. 1)
T1 sequence (P11511 1-503): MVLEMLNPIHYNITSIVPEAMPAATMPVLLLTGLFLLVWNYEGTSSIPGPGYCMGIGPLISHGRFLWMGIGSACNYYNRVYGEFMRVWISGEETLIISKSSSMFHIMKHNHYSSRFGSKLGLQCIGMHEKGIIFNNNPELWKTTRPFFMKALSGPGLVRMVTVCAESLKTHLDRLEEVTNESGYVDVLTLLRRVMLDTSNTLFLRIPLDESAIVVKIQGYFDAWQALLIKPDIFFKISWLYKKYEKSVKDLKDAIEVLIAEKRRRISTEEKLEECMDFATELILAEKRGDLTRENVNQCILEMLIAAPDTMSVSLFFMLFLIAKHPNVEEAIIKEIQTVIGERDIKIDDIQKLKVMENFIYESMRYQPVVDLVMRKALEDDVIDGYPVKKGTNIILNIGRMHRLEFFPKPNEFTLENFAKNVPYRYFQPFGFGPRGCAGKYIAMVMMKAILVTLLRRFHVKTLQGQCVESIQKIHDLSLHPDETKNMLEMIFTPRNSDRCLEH

B1: aromatase (Homo sapiens) (protein)
chain: MVLEMLNPIHYNITSIVPEAMPAATMPVLLLTGLFLLVWNYEGTSSIPGPGYCMGIGPLISHGRFLWMGIGSACNYYNRVYGEFMRVWISGEETLIISKSSSMFHIMKHNHYSSRFGSKLGLQCIGMHEKGIIFNNNPELWKTTRPFFMKALSGPGLVRMVTVCAESLKTHLDRLEEVTNESGYVDVLTLLRRVMLDTSNTLFLRIPLDESAIVVKIQGYFDAWQALLIKPDIFFKISWLYKKYEKSVKDLKDAIEVLIAEKRRRISTEEKLEECMDFATELILAEKRGDLTRENVNQCILEMLIAAPDTMSVSLFFMLFLIAKHPNVEEAIIKEIQTVIGERDIKIDDIQKLKVMENFIYESMRYQPVVDLVMRKALEDDVIDGYPVKKGTNIILNIGRMHRLEFFPKPNEFTLENFAKNVPYRYFQPFGFGPRGCAGKYIAMVMMKAILVTLLRRFHVKTLQGQCVESIQKIHDLSLHPDETKNMLEMIFTPRNSDRCLEH

Legend:
aromatase = molecular target: T1, aromatase; assay: cell-based
[1] = substrate: C[C@]12CCC(=O)C=C1CC[C@@H]1[C@@H]2CC[C@]2(C)C(=O)CC[C@@H]12; assay: cells, lysate or membranes

Molecule | IC50 (aromatase) [nM] | Km [1] [µM]
C[C@]12CCC(=O)C(O)=C1CC[C@@H]1[C@@H]2CC[C@]2(C)C(=O)CC[C@@H]12 [4-hydroxyandrostenedione] | 70 | 
B1 |  | 0.07

Source: publication PMC1968759, “Biological effects of stable overexpression of aromatase in human hormone-dependent breast cancer cells” (British Journal of Cancer, 1994)
